Measured values as given in patent US20160101076A1, “Use of Sumoylation Inhibitors for Treating Cancer” (priority 2013, published 2016).

Assays:
sKD-C cells = assay: Gene/protein expression and CD44+/CD24-/low FACS in sKD-C cells treated with sumoylation inhibitors; format: cell-based, human; details: for CD44+/CD24-/low population by FACS analysis / CD44 expression by Western blot: s-KD-C cells, FIG. 6A; for ability to repress CD44 expression with knockdown of TFAP2A: TFAP2A siRNA, Western blot FIG. 6B
Protocol: The human breast cancer cell lines (MCF-7, SKBR-3, BT-20, BT-549, MCF-10A) were obtained from American Type Culture Collection. sKD-C cells were subcloned from parental MCF-7 cells with stable knockdown of TFAP2C as described (Cyr et al., 2014). ER<-positive tumors and the basal cancer tumor were obtained from surgical resection specimens. Cell suspensions were prepared with gentle collagenase/hyaluronidase (Stemcells) (Ponti et al., 2005). A new cell line was established from the basal tumor cells, called IOWA-1T (manuscript in preparation).
Total RNA was isolated and analyzed as previously described. Expression values were normalized to the mean of 18S rRNA 4319413E-0803037 (Applied Biosystems) as endogenous control.
Western blots were performed as previously described (Cyr et al., 2014; Kulak et al., 2013). For immunoprecipitations anti-TFAP2A, anti-GFP antibody (Life Technologies) or IgG (#sc-2025, Santa Cruz Biotechnology) were cross-linked with Dynabeads protein A (Life Technologies). MCF7 protein was incubated with Dynabeads protein A-Abs complex, protein complexes were washed with DPBS (Gibco) with 0.01% Tween (Research Products International Corp.), and eluted with SDS loading buffer.
Cells were plated ([…]/10 cm2) and treated with 10 μM gingolic or anacardic acid (Sigma) for 2-4 days and collected for qPCR, Western blot and FACS analysis.
FACS analysis was performed as previously described (Roederer and Hardy, 2001).

[1] = test system: pancreatic carcinoma Panc-1 cell line; assay: CD44 Western blot in Panc-1 pancreatic carcinoma; format: cell-based; details: Panc-1, 96 h treatment; FIG. 18
Protocol: FIG. 18: Western blot, CD44 downregulation, Panc-1 pancreatic carcinoma was treated with ginkgolic and anacardic acids, 96 h.
Similar downregulation of stem cell marker CD44 was determined in pancreatic carcinoma Panc-1 cell line (FIG. 18) and undifferentiated thyroid cell line 8505c (FIG. 19) after 96 h treatment with SUMO inhibitors anacardic and ginkgolic acids. • Woodfield, G. W., Horan, A. D., Chen, Y. & Weigel, R. J. TFAP2C controls hormone response in breast cancer cells through multiple pathways of estrogen signaling. Cancer Res 67, 8439-8443 (2007). • Woodfield, G. W., Chen, Y., Bair, T. B., Domann, F. E. & Weigel, R. J. Identification of primary gene targets of TFAP2C in hormone responsive breast carcinoma cells. Genes Chromosomes Cancer 49, 948-962, doi:10.1002/gcc.20807 (2010). • Tan, S. K. et al. AP-2gamma regulates oestrogen receptor-mediated longrange chromatin interaction and gene transcription. Embo J 30, 2569-2581, doi:10.1038/emboj.2011.151 (2011). • Sorlie, T. et al. Gene expression patterns of breast carcinomas distinguish tumor subclasses with clinical implications. Proc Natl Acad Sci USA 98, 10869-10874. (2001). • Kao, J. et al. Molecular profiling of breast cancer cell lines defines relevant tumor models and provides a resource for cancer gene discovery. […]

[2] = sKD-C cells, compared to vehicle treatment, mRNA and protein (FIG. 5E), 10 μM, 2-4 days

SMILES | CD44+/CD24-/low population by FACS analysis (sKD-C cells; 10 μM, 2-4 days) | CD44 expression by Western blot (sKD-C cells; 10 μM, 2-4 days) | ability to repress CD44 expression with knockdown of TFAP2A (sKD-C cells; sKD-C cells) | stem cell marker CD44 (Western blot) [1] | TFAP2C expression (sKD-C cells; sKD-C cells, compared to vehicle treatment, FIG. 5E) | FREM2 expression (sKD-C cells; sKD-C cells, compared to vehicle treatment, FIG. 5E, 10 μM, 2-4 days) | CD44 expression (sKD-C cells; [2]) | ERα expression (sKD-C cells; [2])
CCCCCCCCCCCCCCCc1cccc(O)c1C(=O)O [AA, Anacardic acid (C15:0)] | significantly reduced | inhibited | completely eliminated | downregulation | – | – | – | –
CCCCCC/C=C\CCCCCCCc1cccc(O)c1C(=O)O [GA, (Z)-6-(Pentadec-8-enyl)-2-hydroxybenzoic acid] | significantly reduced | inhibited | completely eliminated | downregulation | without altering | induced | repressed | induced
